According to US20070027064A1, “Pharmaceutical compositions for inhibiting metal ion dependent enzymatic activity and methods for the use thereof” (priority 2003, published 2007):

Columns and labels:
[1] = test system: inducible nitric oxide synthetase; details: rat mesangial cells; cited from earlier work
[2] = test system: inducible nitric oxide synthetase (iNOS); design: inducible nitric oxide synthetase (iNOS): dose or concentration left out as unconfirmed; details: murine macrophages, cited from earlier work
[3] = test system: tumor cells; details: 0.0001-0.1 μM TPEN, filters coated with collagen IV
Protocol: Chemotaxis evaluation was performed in a similar way to basement membrane invasion, with the exception that the filters were coated with […] collagen IV instead of Matrigel.

[4] = cited from earlier work
[5] = test system: cancer cells; details: examined over 0.1-10 μM, FIG. 1
Excerpt: It is recognized that the induction of MMPs is a key event in angiogenesis and metastatic tumor cell invasiveness.

[6] = target: MMP-9 (Homo sapiens, UniProt P14780)
Protocol: (§1) Sub-confluent cell cultures were incubated for 6-24 h in serum-free DMEM and the resulted supernatant were analyzed for collagenolytic activity. The collagenolytic activity was determined on a gelatin impregnated (1 mg/ml, Difco, Detroit, Mich.), SDS-PAGE 8% gel, with minor modifications. […] The gels were then incubated for 16 hours at 37° C. in 50 mM Tris, 0.2M NaCl, 5 mM CaCl2, 0.02% Brij 35 (w/v) at pH 7.6. At the end of the incubation period, the gels were stained with 0.5% Coomassie G 250 (Bio-Rad Richmond Calif.) in methanol/acetic acid/H2O (30:10:60). The intensity of the various bands was determined on a computerized densitometer (Molecular Dynamics type 300A).

[7] = target: MMP-2 (Homo sapiens, UniProt P08253)
Protocol: as §1

[8] = 6 hours of incubation, HT1080, TPEN 0.001-0.1 micromolar, FIG. 4A
[9] = 24 hours of incubation, HT1080, FIG. 4B

Sequence of MMP-2 (P08253 110-660): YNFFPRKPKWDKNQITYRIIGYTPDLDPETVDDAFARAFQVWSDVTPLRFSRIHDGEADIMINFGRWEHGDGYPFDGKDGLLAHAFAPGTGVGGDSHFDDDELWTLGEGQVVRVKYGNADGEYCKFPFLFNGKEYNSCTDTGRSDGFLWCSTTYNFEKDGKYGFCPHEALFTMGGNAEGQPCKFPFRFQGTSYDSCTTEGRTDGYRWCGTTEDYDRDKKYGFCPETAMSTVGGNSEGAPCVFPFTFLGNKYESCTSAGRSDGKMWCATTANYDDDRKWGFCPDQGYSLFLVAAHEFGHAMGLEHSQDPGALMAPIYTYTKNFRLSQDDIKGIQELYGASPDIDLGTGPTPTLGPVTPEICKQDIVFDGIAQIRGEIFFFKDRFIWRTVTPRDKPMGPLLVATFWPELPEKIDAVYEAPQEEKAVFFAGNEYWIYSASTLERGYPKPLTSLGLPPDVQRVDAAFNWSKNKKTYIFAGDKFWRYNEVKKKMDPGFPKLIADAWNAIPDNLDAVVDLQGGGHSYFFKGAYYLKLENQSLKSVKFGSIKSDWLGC
Sequence of MMP-9 (P14780 94-707): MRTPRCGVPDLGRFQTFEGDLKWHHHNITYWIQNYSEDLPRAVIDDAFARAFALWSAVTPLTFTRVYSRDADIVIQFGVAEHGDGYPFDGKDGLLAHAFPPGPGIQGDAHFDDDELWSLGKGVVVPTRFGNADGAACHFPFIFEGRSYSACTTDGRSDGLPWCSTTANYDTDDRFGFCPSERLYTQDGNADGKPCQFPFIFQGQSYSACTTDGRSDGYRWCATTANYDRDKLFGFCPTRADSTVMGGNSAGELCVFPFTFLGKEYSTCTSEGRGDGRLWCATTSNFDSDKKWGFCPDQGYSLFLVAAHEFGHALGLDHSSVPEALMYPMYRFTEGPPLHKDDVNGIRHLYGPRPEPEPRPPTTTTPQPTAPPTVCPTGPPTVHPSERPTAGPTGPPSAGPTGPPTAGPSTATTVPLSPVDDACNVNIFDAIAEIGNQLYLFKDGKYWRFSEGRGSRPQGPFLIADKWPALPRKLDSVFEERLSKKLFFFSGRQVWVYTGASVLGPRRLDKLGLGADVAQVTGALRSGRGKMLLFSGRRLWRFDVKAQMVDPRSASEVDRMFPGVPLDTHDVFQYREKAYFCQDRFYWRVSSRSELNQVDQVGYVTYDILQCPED

SMILES	inducible nitric oxide synthetase protein expression [1]	nitric oxide production [1]	nitric oxide production ([2]; COL-3 between 2.5 and 10 µg/mL, concentration-dependent)	inducible nitric oxide synthetase (iNOS) ([2]; COL-3 between 2.5 and 10, concentration-dependent)	chemotactic activity of the cells [3]	Ion affinity ([4]; rank order of metal ions)	metal binding ([4]; under physiological blood concentration)	concentration above which TPEN has a toxic effect [5]	MMP-9 activity, % from the control [6, 8] [%]	inhibition of MMP-9 activity after 24 hours [6, 9]	MMP-2 activity, % from the control [7, 8] [%]	inhibition of MMP-2 activity after 24 hours [7, 9]
NC(=O)C1=C(O)C[C@@H]2C[C@@H]3Cc4cccc(O)c4C(=O)C3=C(O)[C@]2(O)C1=O [COL-3, 6-demethyl-6-deoxy-4-dedimethylaminotetracycline]	decrease	decrease	inhibited	inhibited								
c1ccc(CN(CCN(Cc2ccccn2)Cc2ccccn2)Cc2ccccn2)nc1 [TPEN, NNN′N′-Tetrakis-(2-pyridyl-methyl)-ethylenediamine]					not affected	Zn^2+ > Fe^2+ > Mn^2+ >> Ca^2+ > Mg^2+	binds zinc, iron, and copper but does not bind magnesium and calcium	above 0.1 μM	64	disappeared	32	disappeared
